Test results taken from PMC7955072 (Nature Communications, 2021).
Entries after “also recorded” stand apart in the source; their conditions may differ.

Experiments:
full-length ScIleRS = full-length ScIleRS (Saccharomyces cerevisiae, UniProt P09436); assay: Fluorescence-based thermal shift assay (TSA), full-length ScIleRS wild-type; type: binding; conditions: for increase of Tm value of ScIleRS: single ligand (50 μM RM-A, 2 mM L-isoleucine, 2 mM ATP or 50 μM Ile-AMS), Tm without ligand approximately 54 °C; for △Tm: Wild-type, difference between Tm with and without ligands
Sequence of full-length ScIleRS (P09436 whole entry): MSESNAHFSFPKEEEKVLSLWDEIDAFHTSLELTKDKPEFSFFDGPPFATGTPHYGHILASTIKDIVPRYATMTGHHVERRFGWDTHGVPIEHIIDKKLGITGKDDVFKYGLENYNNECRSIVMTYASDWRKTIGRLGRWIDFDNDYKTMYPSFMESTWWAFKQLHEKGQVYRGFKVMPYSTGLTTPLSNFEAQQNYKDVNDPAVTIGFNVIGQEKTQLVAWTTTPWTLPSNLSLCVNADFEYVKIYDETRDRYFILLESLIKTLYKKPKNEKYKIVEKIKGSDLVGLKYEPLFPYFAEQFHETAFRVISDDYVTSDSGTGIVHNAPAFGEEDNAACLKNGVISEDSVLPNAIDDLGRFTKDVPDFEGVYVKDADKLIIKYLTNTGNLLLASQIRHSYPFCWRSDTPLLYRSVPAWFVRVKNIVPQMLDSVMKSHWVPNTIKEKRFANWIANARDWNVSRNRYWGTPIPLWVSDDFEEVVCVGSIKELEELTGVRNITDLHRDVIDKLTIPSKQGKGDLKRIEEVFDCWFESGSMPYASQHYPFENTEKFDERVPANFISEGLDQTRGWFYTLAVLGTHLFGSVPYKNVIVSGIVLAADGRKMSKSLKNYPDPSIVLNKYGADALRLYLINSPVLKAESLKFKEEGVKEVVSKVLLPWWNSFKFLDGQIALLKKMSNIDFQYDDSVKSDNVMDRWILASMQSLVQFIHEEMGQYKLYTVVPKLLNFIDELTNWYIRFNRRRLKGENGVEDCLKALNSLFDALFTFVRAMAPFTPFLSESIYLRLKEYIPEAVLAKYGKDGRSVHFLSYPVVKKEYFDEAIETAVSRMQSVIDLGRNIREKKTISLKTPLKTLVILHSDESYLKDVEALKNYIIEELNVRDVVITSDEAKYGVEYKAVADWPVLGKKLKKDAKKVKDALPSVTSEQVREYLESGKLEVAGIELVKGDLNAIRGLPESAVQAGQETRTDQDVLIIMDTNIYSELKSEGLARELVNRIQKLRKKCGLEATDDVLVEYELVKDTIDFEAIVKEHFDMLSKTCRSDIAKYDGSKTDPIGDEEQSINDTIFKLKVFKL
Method: (§1) Ligand binding usually stabilizes the protein during the thermal denaturation process, and tighter binding usually causes a larger positive shift in the protein melting temperature (Tm)[45]. […] The fluorescence intensity was recorded by a StepOnePlus Real-Time PCR instrument (Life Technologies), and the maximums of the first derivatives were determined to calculate Tm values. Each Tm value was an average of triple assays.

[1] = target: C-terminal truncated ScIleRS (residues 1-984) (Saccharomyces cerevisiae, UniProt P09436); assay: Fluorescence-based thermal shift assay (TSA), C-terminal truncated ScIleRS; type: binding; conditions: protein bound with copurified Ile-AMP
Sequence of C-terminal truncated ScIleRS (residues 1-984) (P09436 1-984): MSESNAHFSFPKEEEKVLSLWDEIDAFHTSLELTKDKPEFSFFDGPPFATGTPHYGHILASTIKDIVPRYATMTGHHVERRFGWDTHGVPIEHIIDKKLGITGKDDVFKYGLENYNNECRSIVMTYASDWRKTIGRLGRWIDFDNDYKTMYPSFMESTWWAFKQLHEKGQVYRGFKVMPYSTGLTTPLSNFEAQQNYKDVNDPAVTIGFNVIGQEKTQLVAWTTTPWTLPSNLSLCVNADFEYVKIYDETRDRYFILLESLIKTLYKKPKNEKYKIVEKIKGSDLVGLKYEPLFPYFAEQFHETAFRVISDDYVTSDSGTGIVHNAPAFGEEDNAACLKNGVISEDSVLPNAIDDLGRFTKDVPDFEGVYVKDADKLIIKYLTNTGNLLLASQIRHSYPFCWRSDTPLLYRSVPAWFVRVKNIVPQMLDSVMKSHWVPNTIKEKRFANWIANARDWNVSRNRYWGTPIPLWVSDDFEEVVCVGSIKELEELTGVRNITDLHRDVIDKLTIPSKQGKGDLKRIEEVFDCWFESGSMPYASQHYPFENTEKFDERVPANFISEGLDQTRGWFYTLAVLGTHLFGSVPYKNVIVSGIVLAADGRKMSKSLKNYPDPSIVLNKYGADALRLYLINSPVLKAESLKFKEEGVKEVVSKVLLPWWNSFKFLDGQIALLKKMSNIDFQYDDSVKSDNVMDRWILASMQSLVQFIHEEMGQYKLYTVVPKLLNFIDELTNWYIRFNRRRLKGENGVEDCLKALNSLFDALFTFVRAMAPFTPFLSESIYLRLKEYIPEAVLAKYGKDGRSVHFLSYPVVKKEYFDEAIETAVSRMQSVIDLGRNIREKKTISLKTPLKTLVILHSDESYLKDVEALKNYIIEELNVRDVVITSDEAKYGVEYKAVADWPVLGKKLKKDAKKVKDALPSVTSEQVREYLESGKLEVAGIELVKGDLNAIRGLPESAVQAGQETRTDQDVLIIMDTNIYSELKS
Method: The binding of RM-A to IleRS and the impact of intermediate analogue (Ile-AMS, MedChemExpress) or substrates on binding were evaluated by the fluorescence-based thermal shift assay (TSA). Ligand binding usually stabilizes the protein during the thermal denaturation process, and tighter binding usually causes a larger positive shift in the protein melting temperature (Tm)[45]. […]. The mixtures were incubated at 25 °C for 10 min and then heated from 25 °C to 95 °C at a rate of 1 °C/min. The fluorescence intensity was recorded by a StepOnePlus Real-Time PCR instrument (Life Technologies), and the maximums of the first derivatives were determined to calculate Tm values. Each Tm value was an average of triple assays.

ScIleRS D527A = ScIleRS D527A (Saccharomyces cerevisiae, UniProt P09436, D527A); type: binding
Sequence of ScIleRS D527A (P09436 whole entry D527A): as the sequence (P09436 whole entry) above, with D527A counted along it
Method: as §1

ScIleRS F191A = ScIleRS F191A (Saccharomyces cerevisiae, UniProt P09436, F191A); type: binding
Sequence of ScIleRS F191A (P09436 whole entry F191A): as the sequence (P09436 whole entry) above, with F191A counted along it
Method: as §1

ScIleRS F48A = ScIleRS F48A (Saccharomyces cerevisiae, UniProt P09436, F48A); type: binding
Sequence of ScIleRS F48A (P09436 whole entry F48A): as the sequence (P09436 whole entry) above, with F48A counted along it
Method: as §1

ScIleRS F48Y = ScIleRS F48Y (Saccharomyces cerevisiae, UniProt P09436, F48Y); type: binding
Sequence of ScIleRS F48Y (P09436 whole entry F48Y): as the sequence (P09436 whole entry) above, with F48Y counted along it
Method: as §1

ScIleRS P90A = ScIleRS P90A (Saccharomyces cerevisiae, UniProt P09436, P90A); type: binding
Sequence of ScIleRS P90A (P09436 whole entry P90A): as the sequence (P09436 whole entry) above, with P90A counted along it
Method: as §1

ScIleRS R454A = ScIleRS R454A (Saccharomyces cerevisiae, UniProt P09436, R454A); type: binding
Sequence of ScIleRS R454A (P09436 whole entry R454A): as the sequence (P09436 whole entry) above, with R454A counted along it
Method: as §1

ScIleRS R460A = ScIleRS R460A (Saccharomyces cerevisiae, UniProt P09436, R460A); type: binding
Sequence of ScIleRS R460A (P09436 whole entry R460A): as the sequence (P09436 whole entry) above, with R460A counted along it
Method: as §1

ScIleRS R462A = ScIleRS R462A (Saccharomyces cerevisiae, UniProt P09436, R462A); type: binding
Sequence of ScIleRS R462A (P09436 whole entry R462A): as the sequence (P09436 whole entry) above, with R462A counted along it
Method: as §1

ScIleRS T572A = ScIleRS T572A (Saccharomyces cerevisiae, UniProt P09436, T572A); type: binding
Sequence of ScIleRS T572A (P09436 whole entry T572A): as the sequence (P09436 whole entry) above, with T572A counted along it
Method: as §1

ScIleRS V89A = ScIleRS V89A (Saccharomyces cerevisiae, UniProt P09436, V89A); type: binding
Sequence of ScIleRS V89A (P09436 whole entry V89A): as the sequence (P09436 whole entry) above, with V89A counted along it
Method: as §1

ScIleRS W402A = ScIleRS W402A (Saccharomyces cerevisiae, UniProt P09436, W402A); type: binding
Sequence of ScIleRS W402A (P09436 whole entry W402A): as the sequence (P09436 whole entry) above, with W402A counted along it
Method: as §1

ScIleRS W449A = ScIleRS W449A (Saccharomyces cerevisiae, UniProt P09436, W449A); type: binding
Sequence of ScIleRS W449A (P09436 whole entry W449A): as the sequence (P09436 whole entry) above, with W449A counted along it
Method: as §1

ScIleRS W456A = ScIleRS W456A (Saccharomyces cerevisiae, UniProt P09436, W456A); type: binding
Sequence of ScIleRS W456A (P09436 whole entry W456A): as the sequence (P09436 whole entry) above, with W456A counted along it
Method: as §1

ScIleRS W529A = ScIleRS W529A (Saccharomyces cerevisiae, UniProt P09436, W529A); type: binding
Sequence of ScIleRS W529A (P09436 whole entry W529A): as the sequence (P09436 whole entry) above, with W529A counted along it
Method: as §1

ScIleRS Y571A = ScIleRS Y571A (Saccharomyces cerevisiae, UniProt P09436, Y571A); type: binding
Sequence of ScIleRS Y571A (P09436 whole entry Y571A): as the sequence (P09436 whole entry) above, with Y571A counted along it
Method: as §1

ScIleRS del_KMSKS = ScIleRS del_KMSKS (Saccharomyces cerevisiae, UniProt P09436, DEL601-605/K608S/L607G); type: binding
Sequence of ScIleRS del_KMSKS (P09436 other isoform, or with tags, fused parts or gaps DEL601-605/L607G/K608S): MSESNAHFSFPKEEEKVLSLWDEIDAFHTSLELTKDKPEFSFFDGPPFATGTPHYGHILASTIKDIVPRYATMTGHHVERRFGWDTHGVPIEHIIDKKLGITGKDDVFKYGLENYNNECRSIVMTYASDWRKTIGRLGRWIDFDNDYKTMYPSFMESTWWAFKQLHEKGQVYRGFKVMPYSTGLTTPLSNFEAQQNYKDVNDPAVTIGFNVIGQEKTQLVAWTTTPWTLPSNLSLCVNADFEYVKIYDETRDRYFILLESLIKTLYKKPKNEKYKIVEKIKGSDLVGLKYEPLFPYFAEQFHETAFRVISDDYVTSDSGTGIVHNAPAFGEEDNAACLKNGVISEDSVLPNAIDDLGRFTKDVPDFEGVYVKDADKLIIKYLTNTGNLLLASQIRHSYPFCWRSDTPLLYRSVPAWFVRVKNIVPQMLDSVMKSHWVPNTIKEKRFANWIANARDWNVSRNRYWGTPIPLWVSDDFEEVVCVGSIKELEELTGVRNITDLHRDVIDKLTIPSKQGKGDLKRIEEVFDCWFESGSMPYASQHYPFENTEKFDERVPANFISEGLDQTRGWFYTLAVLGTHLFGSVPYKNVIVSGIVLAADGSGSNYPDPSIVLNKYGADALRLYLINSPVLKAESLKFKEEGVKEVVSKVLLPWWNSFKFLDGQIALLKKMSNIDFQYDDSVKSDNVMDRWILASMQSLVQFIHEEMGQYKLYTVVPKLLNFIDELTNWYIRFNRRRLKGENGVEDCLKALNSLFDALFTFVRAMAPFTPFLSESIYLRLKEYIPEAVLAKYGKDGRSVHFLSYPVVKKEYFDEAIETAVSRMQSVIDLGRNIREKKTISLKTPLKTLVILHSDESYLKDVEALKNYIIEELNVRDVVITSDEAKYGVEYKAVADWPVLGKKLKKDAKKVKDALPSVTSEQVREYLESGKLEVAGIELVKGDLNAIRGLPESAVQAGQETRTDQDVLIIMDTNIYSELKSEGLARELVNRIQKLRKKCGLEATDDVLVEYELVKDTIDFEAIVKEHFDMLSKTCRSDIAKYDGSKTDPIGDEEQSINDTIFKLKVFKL
Method: as §1

IleRS = conditions: cited from earlier work

Nc1ncnc2c1ncn2[C@@H]1O[C@H](COP(=O)(O)OP(=O)(O)OP(=O)(O)O)[C@@H](O)[C@H]1O [ATP]
increase of Tm value of ScIleRS (full-length ScIleRS): approximately 4 °C | Tm value of C-terminal truncated ScIleRS [1]: not improved

CC[C@H](C)[C@H](N)C(=O)NS(=O)(=O)OC[C@H]1O[C@@H](n2cnc3c(N)ncnc32)[C@H](O)[C@@H]1O [Ile-AMS]
△Tm (full-length ScIleRS): 23.4 °C | increase of Tm value of ScIleRS (full-length ScIleRS): ~23 °C | △Tm (ScIleRS D527A): 24.2 °C | △Tm (ScIleRS F191A): 26.5 °C | △Tm (ScIleRS F48A): 12.5 °C | △Tm (ScIleRS F48Y): 21.6 °C | △Tm (ScIleRS P90A): 22.1 °C | △Tm (ScIleRS R454A): 21.6 °C | △Tm (ScIleRS R460A): 25.7 °C | △Tm (ScIleRS R462A): 26 °C | △Tm (ScIleRS T572A): 22.7 °C | △Tm (ScIleRS V89A): 24.7 °C | △Tm (ScIleRS W402A): 24.2 °C | △Tm (ScIleRS W449A): 24.9 °C | △Tm (ScIleRS W456A): 18.8 °C | △Tm (ScIleRS W529A): 18.4 °C | △Tm (ScIleRS Y571A): 24.6 °C | △Tm (ScIleRS del_KMSKS): 20.2 °C

CC[C@H](C)[C@H](N)C(=O)O [L-isoleucine]
△Tm (full-length ScIleRS): 7.9 °C | increase of Tm value of ScIleRS (full-length ScIleRS): ~8 °C | Tm value of C-terminal truncated ScIleRS [1]: not improved | △Tm (ScIleRS D527A): 5.2 °C | △Tm (ScIleRS F191A): 8.3 °C | △Tm (ScIleRS F48A): 0.2 °C | △Tm (ScIleRS F48Y): 4.4 °C | △Tm (ScIleRS P90A): 6.4 °C | △Tm (ScIleRS R454A): 6.6 °C | △Tm (ScIleRS R460A): 3.1 °C | △Tm (ScIleRS R462A): 4 °C | △Tm (ScIleRS T572A): 4.8 °C | △Tm (ScIleRS V89A): 4.7 °C | △Tm (ScIleRS W402A): 6.9 °C | △Tm (ScIleRS W449A): 7.8 °C | △Tm (ScIleRS W456A): 0.7 °C | △Tm (ScIleRS W529A): 1.9 °C | △Tm (ScIleRS Y571A): 4 °C | △Tm (ScIleRS del_KMSKS): 8.5 °C

CC(/C=C/[C@H](O)[C@@H](C)/C=C/C(=O)O)=C\C[C@H]1O[C@@]2(CC[C@H](C)[C@H](/C=C/C(C)=C/C(=O)O)O2)CC[C@@H]1C [SF-A, Spirofungin A]
inhibition of IleRS (IleRS): only weakly inhibit

reveromycin T [RM-T]
inhibitory activity against IleRS compared with RM-A (IleRS): stronger inhibitory activity; also recorded: even higher inhibitory activity
